Measured values published in patent publication US20250326748A1, “COMPOUNDS AND METHODS FOR MODULATING SPLICING” (REMIX THERAPEUTICS INC., priority 2022, published 2025).
Structures can show the parent of a compound that is named as a salt. Where two headings read alike, the source gives them in different places.

Legend:
Target C mRNA = experiment: Splicing RT-qPCR panel, Target C canonical junction (CJ) mRNA; assay type: cell-based, human; details: Homo sapiens, read-out: Target C CJ (decrease in CJ mRNA levels, IC50)
Experimental: (§1) Compounds described herein were used to modulate RNA transcript abundance in cells. The expression of a target mRNA was measured by detecting the formation of an exon-exon junction in the canonical transcript (CJ). A compound mediated exon-inclusion event was detected by observing an increase in formation of a new junction with an alternative exon (AJ). Real-time qPCR assays were used to detect these splicing switches and interrogate the potency of various compounds towards different target genes. A high-throughput real time quantitative PCR (RT-qPCR) assay was developed to measure these two isoforms of the mRNA (CJ and AJ) for exemplary genes, such as HTT, SMN2, and MYB, together with a control housekeeping gene, GAPDH or GUSB or PPIA, used for normalization. Briefly, the A673 or K562 cell line was treated with various compounds described herein (e.g., compounds of Formula (D). After treatment, the levels of the HTT, MYB, or SMN2 mRNA targets were determined from each sample of cell lysate by cDNA synthesis followed by qPCR.
(§2) The A673 cell line was cultured in DMEM with 10% FBS. Cells were diluted with full growth media and plated in a 96-well plate (15,000 cells in 100 ul media per well). The plate was incubated at 37° C. with 5% CO2 for 24 hours to allow cells to adhere. An 11-point 3-fold serial dilution of the compounds was made in DMSO then diluted in media in an intermediate plate. Compounds were transferred from the intermediate plate to the cell plate with the top dose at a final concentration of 10 uM in the well. Final DMSO concentration was kept at or below 0.25%. The cell plate was returned to the incubator at 37° C. with 5% CO2 for an additional 24 hours.
(§3) The K562 cell line was cultured in IMDM with 10% FBS. For K562, cells were diluted with full growth media and plated in either a 96-well plate (50,000 cells in 50 uL media per well) or a 384-well plate (8,000-40,000 cells in 45 uL media per well). An 11-point 3-fold serial dilution of the compounds were made in DMSO then diluted in media in an intermediate plate. Compound was transferred from the intermediate plate to the cell plate with the top dose at a final concentration of 10 uM in the well. Final DMSO concentration was kept at or below 0.25%. Final volume was 100 uL for 96-well plate and 50 uL for 384-well plate. The cell plate was then placed in an incubator at 37° C. with 5% CO2 for 24 hours.
(§4) The cells were then gently washed with 50 uL-100 uL cold PBS before proceeding to addition of lysis buffer. 30 uL-50 μL of room temperature lysis buffer with DNAse I (and optionally RNAsin) was added to each well. Cells were shaken/mixed thoroughly at room temperature for 5-10 minutes for lysis to take place and then 3 uL-5 μL of room temperature stop solution was added and wells were shaken/mixed again. After 2-5 minutes, the cell lysate plate was transferred to ice for RT-qPCR reaction setup. The lysates could also be frozen at −80° C. for later use.
(§5) In some cases, a direct lysis buffer was used. An appropriate volume of 3× lysis buffer (10 mM Tris, 150 mM NaCl, 1.5%-2.5% Igepal and 0.1-1 U/uL RNAsin, pH 7.4) was directly added to either K562 or A673 cells in media and mixed by pipetting 3 times. The plates were then incubated at room temperature with shaking/rocking for 20-50 minutes to allow for lysis to take place. After this time, the cell lysate plate was transferred to ice to set up for the RT-qPCR reactions. The lysates could also be frozen at −80° C. for later use.
To set up 10 uL RT-qPCR reactions, cell lysates were transferred to 384-well qPCR plates containing the master mix according to the table below. The plates were sealed, gently vortexed, and spun down before the run. The volumes were adjusted accordingly in some instances where the reaction was carried in 20 μL. The table below summarizes the components of the RT-qPCR reactions:
The RT-qPCR reaction was performed using a QuantStudio (ThermoFisher) under the following fast cycling conditions. […]

HTT mRNA = experiment: Splicing RT-qPCR assay, HTT canonical (CJ) and alternative (AJ) junction mRNA; assay type: cell-based, human; details: Homo sapiens; for IC50: canonical junction mRNA; for AC50: alternative junction mRNA, read-out: HTT AJ (AC50, increase in AJ mRNA)
Experimental: as §1
(§6) • Cells-to-CT 1-step kit: ThermoFisher A25602, Cells-to-CT lysis reagent: ThermoFisher 4391851C, TaqMan™ Fast Virus 1-Step Master Mix: ThermoFisher 4444436 • GAPDH: VIC-PL, ThermoFisher 4326317E (Assay: Hs99999905_m1)—used for K562/suspension cell lines • GUSB: VIC-PL, ThermoFisher 4326320E (Assay: Hs99999908_m1)—used for K562/suspension cell lines • PPIA: VIC-PL, ThermoFisher 4326316E (Assay: Hs99999904_m1)—used for A673/adherent cell lines
as §2, §3, §4
as §5, with “use. […]” for “use.”

K562 cells = experiment: Cell viability, Cell Titer Glo 2.0 assay, K562; details: 72 hours
MYB mRNA = experiment: Splicing RT-qPCR assay, MYB canonical (CJ) and alternative (AJ) junction mRNA; assay type: cell-based, human; details: Homo sapiens; for IC50: canonical junction mRNA; for AC50: alternative junction mRNA, read-out: MYB AJ (AC50, increase in AJ mRNA)
Experimental: as §1, §6, §2, §3, §4
as §5, with “use. […]” for “use.”

[1] = 24 h, RT-qPCR, A673 or K562 cells, 24 hours treatment, read-out: HTT CJ (IC50, decrease in CJ mRNA)
[2] = qPCR panel, read-out: HTT CJ (decrease in CJ mRNA levels, IC50)
[3] = RT-qPCR, A673 or K562 cells, 24 hours treatment
[4] = qPCR panel, read-out: MYB CJ (decrease in CJ mRNA levels, IC50)
[5] = RT-qPCR, A673 or K562 cells, 24 hours treatment, read-out: MYB CJ (IC50, decrease in CJ mRNA)

Structure (SMILES)	IC50 (Target C mRNA) [nM]	IC50 (HTT mRNA; [1]) [nM]	IC50 (HTT mRNA; [2]) [nM]	AC50 (HTT mRNA; [3]) [nM]	Effect on Cell Viability, K562 (K562 cells)	IC50 (MYB mRNA; [4]) [nM]	AC50 (MYB mRNA; [3]) [nM]	IC50 (MYB mRNA; [5]) [nM]	IC50 (HTT mRNA; RT-qPCR, A673 or K562 cells, 24 hours treatment, read-out: HTT CJ (IC50, decrease in CJ mRNA)) [nM]
Cc1c(O)c(-c2cc(Cl)c3cc(N4C[C@H](C)N[C@@H](C)C4)cnc3n2)cc2cn(C)nc12 [Compound 232, 5-{4-chloro-6-[(3S,5S)-3,5-dimethylpiperazin-1-yl]-1,8-naphthyridin-2-yl}-2,7-dimethylindazol-6-ol]	100 to 1000	< 100	< 100	< 100	A (<100 nM)	< 100	< 100	< 100	
Cc1c(O)c(-c2cc(C3CC3)c3cc(N4C[C@@H](C)N[C@@H](C)C4)cnc3n2)cc2cn(C)nc12 [Compound 374, 5-{4-cyclopropyl-6-[(3R,5S)-3,5-dimethylpiperazin-1-yl]-1,8-naphthyridin-2-yl}-2,7-dimethylindazol-6-ol]	> 10000	1000 to 10000	1000 to 10000	1000 to 10000	C (1000-9999 nM)	100 to 1000	100 to 1000	100 to 1000	
Cc1c(O)c(-c2cc(Cl)c3cc(N4C[C@@H]5CCCN(C)[C@@H]5C4)cnc3n2)cc2cn(C)nc12 [Compound 375]	> 10000	> 10000	> 10000	> 10000	B (100-1000 nM)	100 to 1000	100 to 1000	100 to 1000	
CN1CCC[C@H]2CN(c3cnc4nc(-c5cc(F)c6nn(C)cc6c5)cc(Cl)c4c3)C[C@H]21 [Compound 376, 6-[(4aS,7aS)-1-methyl-hexahydro-2H-pyrrolo[3,4-b]pyridin-6-yl]-4-chloro-2-(7-fluoro-2-methylindazol-5-yl)-1,8-naphthyridine]	> 10000	> 10000	> 10000	> 10000	C (1000-9999 nM)	1000 to 10000	1000 to 10000	1000 to 10000	
Cc1c(O)c(-c2cc(C3CC3)c3cc(N4C[C@H](C)N[C@@H](C)C4)cnc3n2)cc2cn(C)nc12 [Compound 377, 5-{4-cyclopropyl-6-[(3S,5S)-3,5-dimethylpiperazin-1-yl]-1,8-naphthyridin-2-yl}-2,7-dimethylindazol-6-ol]	1000 to 10000	100 to 1000	100 to 1000	100 to 1000	B (100-1000 nM)	< 100	< 100	< 100	
C[C@@H]1CN(c2cnc3nc(-c4cc5cn(C)nc5cc4O)cc(Cl)c3c2)CC2(CC2)N1 [Compound 378]	> 10000	1000 to 10000	1000 to 10000	> 10000	B (100-1000 nM)	100 to 1000	100 to 1000	100 to 1000	
Cn1cc2cc(-c3cc(Cl)c4cc(N5CCNC6(CC6)C5)cnc4n3)cc(F)c2n1 [Compound 382]	> 10000	1000 to 10000	1000 to 10000	> 10000	C (1000-9999 nM)	100 to 1000	100 to 1000	100 to 1000	
Cc1cn2nc(-c3cc(Cl)c4cc(N5CCNC6(CC6)C5)cnc4n3)cc(C)c2n1 [Compound 383]	1000 to 10000	1000 to 10000	1000 to 10000	1000 to 10000	C (1000-9999 nM)	100 to 1000	100 to 1000	100 to 1000	
Cc1c(O)c(-c2cc(C#N)c3cc(N4C[C@H](C)N[C@@H](C)C4)cnc3n2)cc2cn(C)nc12 [Compound 384, 6-[(3S,5S)-3,5-dimethylpiperazin-1-yl]-2-(6-hydroxy-2,7-dimethylindazol-5-yl)-1,8-naphthyridine-4-carbonitrile]	1000 to 10000	100 to 1000	100 to 1000	100 to 1000	A (<100 nM)	< 100	< 100	< 100	
C[C@H]1CN(c2cnc3nc(-c4cc(F)c5nn(C)cc5c4)ccc3c2Cl)CCN1 [Compound 385, 5-chloro-2-(7-fluoro-2-methylindazol-5-yl)-6-[(3S)-3-methylpiperazin-1-yl]-1,8-naphthyridine]	1000 to 10000	> 10000	> 10000	1000 to 10000	A (<100 nM)	< 100	100 to 1000	< 100	
Cn1cc2cc(-c3cc(Cl)c4cc(N5CC[C@@H](N6CCC6)C5)cnc4n3)c(O)cc2n1 [Compound 386]	> 10000	1000 to 10000	1000 to 10000	1000 to 10000	B (100-1000 nM)	100 to 1000	100 to 1000	100 to 1000	
Cn1cc2cc(-c3cc(Cl)c4cc(N5CC[C@@H](NCCF)C5)cnc4n3)c(O)cc2n1 [Compound 387, 5-{4-chloro-6-[(3R)-3-[(2-fluoroethyl)amino]pyrrolidin-1-yl]-1,8-naphthyridin-2-yl}-2-methylindazol-6-ol hydrochloride]	1000 to 10000	100 to 1000	100 to 1000	100 to 1000	B (100-1000 nM)	< 100	< 100	< 100	
Cl.Cn1cc2cc(-c3cc(Cl)c4cc(N5CC[C@H](NCCF)C5)cnc4n3)c(O)cc2n1 [Compound 389]	1000 to 10000		1000 to 10000	1000 to 10000	B (100-1000 nM)	100 to 1000	< 100	100 to 1000	1000 to 10000
